This is an account of results in patent publication US10189794B2, “Heteroaryl compounds and uses thereof” (Celgene CAR LLC, priority 2013, dated 2019).

The target in assay [1] is FGFR4-WT (Homo sapiens (Human), UniProt P22455). Briefly: Omnia assay for potency assessment against FGFR4 enzyme. The format is biochemical. Particulars: read-out: FGFR4 IC50. Here is the method:
A 10× stock solution of FGFR4-WT (PR4380C), (from Invitrogen, Carlsbad, Calif.) corresponding to method a in Table 7, was prepared as described below. Alternatively, a 10× stock solution of FGFR4-WT (F01-11G), (SignalChem, Richmond, BC) corresponding to method b in Table 7, was prepared as described below. A solution of 1.4×ATP (AS001A) and 5×Tyr-Sox conjugated peptide substrate (KNZ3101) were prepared in IX kinase reaction buffer consisting of 20 mM Tris, pH 7.5, 5 mM MgCl2, 1 mM EGTA, 5 mM β-glycerophosphate, 5% glycerol (10× stock, KB002A) and 0.2 mM DTT (DS001A). […] The serially diluted compounds were prepared on a Tecan EVO100. A second addition of 10 μl of Tyr-Sox FGFR4 substrate was added to each well and the kinase reactions were started with the addition of 35 μL of 1.4×ATP. The reactions were monitored every 71 seconds for 240 minutes at λex360/λem485 in a Synergy plate reader from BioTek (Winooski, Vt.).

The subject of assay [2] is Huh7 cells. Put plainly: Cell proliferation, Huh7 (CellTiter Glo). The settings on record: Homo sapiens, read-out: Cell Proliferation GI50 (nM) HUH. The format is cell-based. Here is the method:
The growth inhibition (GI50) values were determined by Graph Pad Prism.

In assay [3] the test system is MDA-MB-453 cells. Briefly: Cell proliferation, MDA-MB-453 (CellTiter Glo). In kind it is cell-based. Particulars: Homo sapiens, read-out: Cell Proliferation GI50 (nM) MDA. The method, then: For both MDA-MB-453 and Huh7 cells the starting density was 5000 cells per well. The cells were allowed to settle down for 4 hr and were then treated with 5, 1.25, 0.31, 0.078, 0.020 or 0.005 μM of test compound for: 96 hr for MDA-MB-453 and 120 hr for Huh7 cells. Cell viability was determined by CellTiter Glo (Promega, Madison, Wis.) and the results were converted to cell numbers using a standard curve. The growth inhibition (GI50) values were determined by Graph Pad Prism.
The results of these experiments show the ability of compounds to inhibit cell growth in FGFR dependant cell lines and are depicted in Table 8, in the columns titled “Cell Proliferation GI50 (nM)”. MDA-MB-453 cell results fall under the heading “MDA” and Huh7 cell results fall under the heading “Huh.”
Background: In ATP-based viability assays light output follows the ATP content of the culture.

Setting [4] is: method a: Invitrogen FGFR4-WT 10 nM, ATP 300 uM, Y10-Sox 10 uM.

pIC50: −log10 of the molar value. Like-named read-outs stand apart in the source and are kept apart here.

FGFR4-WT, sequence (P22455 22-802): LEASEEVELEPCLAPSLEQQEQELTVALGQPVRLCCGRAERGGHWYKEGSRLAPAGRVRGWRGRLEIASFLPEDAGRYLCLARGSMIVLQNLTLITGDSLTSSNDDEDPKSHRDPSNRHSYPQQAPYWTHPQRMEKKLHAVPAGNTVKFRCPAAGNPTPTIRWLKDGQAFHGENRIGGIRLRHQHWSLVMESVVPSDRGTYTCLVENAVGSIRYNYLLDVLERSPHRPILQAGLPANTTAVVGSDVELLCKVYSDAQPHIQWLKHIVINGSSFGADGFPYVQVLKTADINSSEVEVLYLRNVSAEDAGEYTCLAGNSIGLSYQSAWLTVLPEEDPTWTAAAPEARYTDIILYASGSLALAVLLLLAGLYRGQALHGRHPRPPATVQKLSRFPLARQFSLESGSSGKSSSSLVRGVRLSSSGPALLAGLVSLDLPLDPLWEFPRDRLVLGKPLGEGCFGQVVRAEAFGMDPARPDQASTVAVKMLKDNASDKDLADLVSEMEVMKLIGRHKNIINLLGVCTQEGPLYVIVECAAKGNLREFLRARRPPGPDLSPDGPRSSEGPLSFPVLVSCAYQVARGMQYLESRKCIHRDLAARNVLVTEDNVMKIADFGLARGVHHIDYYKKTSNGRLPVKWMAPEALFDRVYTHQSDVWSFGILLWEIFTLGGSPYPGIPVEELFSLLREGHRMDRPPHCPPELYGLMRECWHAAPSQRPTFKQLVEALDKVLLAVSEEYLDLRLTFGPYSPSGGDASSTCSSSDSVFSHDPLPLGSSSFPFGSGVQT

`C=CC(=O)NC1CCCCC1Nc1ncc2c(n1)N(C)C(=O)N(c1cc(OC)cc(OC)c1)C2` (racemic) [I-18]: the negative-log IC50 (pIC50) (commonly the negative decadic logarithm of the IC50, by convention in mol/L) in assay [1] (method b: SignalChem FGFR4-WT 2.5 nM, ATP 250 uM, Y10-Sox 10 uM) is < 6.00.
In the case of `C=CC(=O)Nc1ccccc1Nc1ncc2cc(-c3cc(OC)cc(OC)c3)c(N)nc2n1` [I-155], in assay [1] (setting [4]), the pIC50 was > 7.00.
The same measure, in the same setting: the figure for `C=CC(=O)Nc1cc(N2CCN(C(=O)OC(C)(C)C)CC2)ccc1Nc1ncc2c(n1)N(C)C(=O)N(c1c(Cl)c(OC)cc(OC)c1Cl)C2` [I-62] is > 7.00.
As for `C=CC(=O)Nc1ccccc1Nc1ncc2c(n1)N(CC(F)F)C(=O)N(c1c(Cl)c(OC)cc(OC)c1Cl)C2` [I-103], the GI50 was 101 to 500 nM in assay [2] (Huh-7, Huh7, 120 hr) and < 100 nM in assay [3] (MDA-MB-453, 96 hr).
For the compound `C=CC(=O)Nc1cc(C(F)(F)F)ccc1Nc1ncc2c(n1)N(Cc1ccccc1)C(=O)N(c1c(Cl)c(OC)cc(OC)c1Cl)C2` [I-6], the GI50 was 101 to 500 nM in assay [2] (Huh-7, Huh7, 120 hr) and < 100 nM in assay [3] (MDA-MB-453, 96 hr).
For `C=CC(=O)Nc1ccccc1Nc1ncc2c(n1)N(C)C(=O)N(c1c(Cl)cccc1Cl)C2` [I-83], in that order: > 1000 nM and 501 to 999 nM.
`C=CC(=O)Nc1ccccc1Nc1ncc2c(n1)N(Cc1cnn(C)c1)C(=O)N(c1c(Cl)c(OC)cc(OC)c1Cl)C2` [I-149]: the GI50 in assay [2] (Huh-7, Huh7, 120 hr) is < 100 nM. In assay [1] (setting [4]), the pIC50 is > 7.00.
Consider `C=CC(=O)Nc1ccccc1Nc1ncc2c(n1)N(Cc1cccc(C(N)=O)c1)C(=O)N(c1cc(OC)cc(OC)c1)C2` [I-97], for which the GI50 was > 1000 nM in assay [2] (Huh-7, Huh7, 120 hr) and 101 to 500 nM in assay [3] (MDA-MB-453, 96 hr).
For `C=CC(=O)Nc1ccccc1Nc1ncc2c(n1)N(Cc1ccnc(N)c1)C(=O)N(c1cc(OC)cc(OC)c1)C2` [I-87], in that order: 101 to 500 nM and < 100 nM.
With `C=CC(=O)Nc1ccccc1Nc1ncc2nc(-c3cc(OC)cc(OC)c3)c(=O)n(C)c2n1` [I-128], in assay [1] (setting [4]), the pIC50 was 6.30 to 7.00.
For `C=CC(=O)NC1CCCCC1Nc1ncc2c(n1)N(Cc1cccc(NS(C)(=O)=O)c1)C(=O)N(c1c(Cl)c(OC)cc(OC)c1Cl)C2` (racemic) [I-89], in assay [1] (setting [4]), the pIC50 was > 7.00.
For `C=CC(=O)NC1CCCCC1Nc1ncc2c(n1)N(C1CCC1)C(=O)N(c1c(Cl)c(OC)cc(OC)c1Cl)C2` (racemic) [I-70], the pIC50 in assay [1] (setting [4]) is > 7.00.
Turning to `C=CC(=O)NC1CCCCC1Nc1ncc2c(n1)N(C1CCCN(C(=O)OC(C)(C)C)C1)C(=O)N(c1cc(OC)cc(OC)c1)C2` (racemic) [I-45], in assay [1] (setting [4]), the pIC50 was < 6.00.
For the compound `C=CC(=O)Nc1ccccc1Nc1ncc2c(n1)N(Cc1cccc(OC)c1)C(=O)N(c1c(Cl)c(OC)cc(OC)c1Cl)C2` [I-28], in assay [1] (setting [4]), the pIC50 is > 7.00.
On to `C=CC(=O)NC1CCCCC1Nc1ncc2c(n1)N(CC1CC1)C(=O)N(c1c(Cl)c(OC)cc(OC)c1Cl)C2` (racemic) [I-129], for which, in assay [1] (setting [4]), the pIC50 is > 7.00.
`C=CC(=O)Nc1ccccc1Nc1ncc2c(n1)N(CC#N)C(=O)N(c1cc(OC)cc(OC)c1)C2` [I-48]: the GI50 in assay [2] (Huh-7, Huh7, 120 hr) is > 1000 nM; in assay [3] (MDA-MB-453, 96 hr), 501 to 999 nM.
With `CCC(=O)N[C@H]1CCCC[C@H]1Nc1ncc2c(n1)N(Cc1cscn1)C(=O)N(c1c(Cl)c(OC)cc(OC)c1Cl)C2` [I-118], the pIC50 in assay [1] (setting [4]) was < 6.00.
With `C=CC(=O)Nc1ccccc1Nc1ncc2c(n1)N(CC(F)F)C(=O)N(c1cc(OC)cc(OC)c1Cl)C2` [I-104], the GI50 is 101 to 500 nM in assay [2] (Huh-7, Huh7, 120 hr) and < 100 nM in assay [3] (MDA-MB-453, 96 hr).
`C=CC(=O)Nc1ccccc1Nc1ncc2c(n1)N(CCF)C(=O)N(c1cc(OC)cc(OC)c1Cl)C2` [I-110]: the GI50 in assay [2] (Huh-7, Huh7, 120 hr) was in the range of 501 to 999 nM; in assay [3] (MDA-MB-453, 96 hr), 101 to 500 nM.
For the compound `C=CC(=O)N[C@H]1CCCC[C@H]1Nc1ncc2c(n1)N(Cc1cnn(C)c1)C(=O)N(c1c(Cl)c(OC)cc(OC)c1Cl)C2` [I-148], the pIC50 in assay [1] (setting [4]) was > 7.00.
The same measure, in the same setting: with `C=CC(=O)NC1CCCCC1Nc1ncc2c(n1)N(C1CCCNC1)C(=O)N(c1cc(OC)cc(OC)c1)C2` (racemic) [I-46] the figure was < 6.00.
Turning to `C=CC(=O)NC1COCC1Nc1ncc2c(n1)N(Cc1cn[nH]c1)C(=O)N(c1c(Cl)c(OC)cc(OC)c1Cl)C2` (stereo not drawn) [I-214], the GI50 in assay [2] (Huh-7, Huh7, 120 hr) was 101 to 500 nM. The pIC50 in assay [1] was > 7.00.
As to `C=CC(=O)N(C)C1CCCCC1Nc1ncc2c(n1)N(C)C(=O)N(c1cc(OC)cc(OC)c1)C2` (racemic) [I-39], the negative-log IC50 (pIC50) in assay [1] (setting [4]) is < 6.00.
For `C=CC(=O)N[C@H]1CCCC[C@H]1Nc1ncc2c(n1)N(C)C(=O)N(c1c(Cl)c(OC)cc(OC)c1Cl)C2` [I-95], the GI50 lay in the range of 501 to 999 nM in assay [2] (Huh-7, Huh7, 120 hr) and 101 to 500 nM in assay [3] (MDA-MB-453, 96 hr).
As to `C=CC(=O)NC1CCCCC1Nc1ncc2c(n1)N(C)C(=O)N(c1c(Cl)c(OC)cc(OC)c1Cl)C2` (racemic) [I-19], the GI50 in assay [2] (Huh-7, Huh7, 120 hr) lay in the range of 501 to 999 nM; in assay [3] (MDA-MB-453, 96 hr), 101 to 500 nM.
As to `C=CC(=O)Nc1ccccc1Nc1ncc2c(n1)N(CC(F)F)C(=O)N(c1cc(OC)cc(OC)c1)C2` [I-99], the GI50 is > 1000 nM in assay [2] (Huh-7, Huh7, 120 hr) and 101 to 500 nM in assay [3] (MDA-MB-453, 96 hr).
As to `C=CC(=O)Nc1ccccc1Nc1ncc2c(n1)N(C1CCNCC1)C(=O)N(c1c(Cl)c(OC)cc(OC)c1Cl)C2` [I-85], the GI50 in assay [2] (Huh-7, 120 h) is 101 to 500 nM; in assay [3] (MDA-MB-453, 96 h) it was < 100 nM.
Take `C=CC(=O)N(C)C1CCCCC1Nc1ncc2c(n1)N(C)C(=O)N(c1c(Cl)c(OC)cc(OC)c1Cl)C2` (stereo not drawn) [I-53]: in assay [1] (setting [4]), the pIC50 was > 7.00.
For the compound `C=CC(=O)Nc1ccccc1Nc1ncc2c(n1)N(CC1CC1)C(=O)N(c1cc(OC)cc(OC)c1Cl)C2` [I-100], the GI50 in assay [2] (Huh-7, Huh7, 120 hr) is 501 to 999 nM; in assay [3] (MDA-MB-453, 96 hr) it was 101 to 500 nM.
For `C=CC(=O)Nc1ccccc1Nc1ncc2c(n1)N(CC(F)F)C(=O)N(c1c(F)c(OC)cc(OC)c1F)C2` [I-116], in that order: 101 to 500 nM and < 100 nM.
As to `C=CC(=O)NC1CCCC1Nc1ncc2c(n1)N(C)C(=O)N(c1c(Cl)c(OC)cc(OC)c1Cl)C2` (racemic) [I-112], the pIC50 in assay [1] (setting [4]) was > 7.00.
For `C=CC(=O)NC1CC=CCC1Nc1ncc2c(n1)N(C)C(=O)N(c1c(Cl)c(OC)cc(OC)c1Cl)C2` (racemic) [I-113], the GI50 in assay [2] (Huh-7, Huh7, 120 hr) was in the range of 501 to 999 nM. Moreover, the pIC50 in assay [1] (setting [4]) was > 7.00.
Consider `C=CC(=O)N[C@@H]1CCCC[C@@H]1Nc1ncc2c(n1)N(Cc1cscn1)C(=O)N(c1c(Cl)c(OC)cc(OC)c1Cl)C2` [I-119], for which the negative logarithm of the IC50 (pIC50) in assay [1] was < 6.00.
Regarding `C=CC(=O)Nc1ccccc1Nc1ncc2c(n1)N(Cc1cn[nH]c1)C(=O)N(c1cc(OC)cc(OC)c1)C2` [I-121], the GI50 in assay [2] (Huh-7, Huh7, 120 hr) is 501 to 999 nM; in assay [3] (MDA-MB-453, 96 hr) it was 101 to 500 nM.
For `C=CC(=O)Nc1ccccc1Nc1ncc2c(n1)N(Cc1cn[nH]c1)C(=O)N(c1c(Cl)c(OC)cc(OC)c1Cl)C2` [I-124], in that order: 101 to 500 nM and < 100 nM.
Take `C=CC(=O)NC1CCCCC1Nc1ncc2c(n1)N(Cc1cccc(NC(=O)CC)c1)C(=O)N(c1c(Cl)c(OC)cc(OC)c1Cl)C2` (racemic) [I-8]: the GI50 in assay [2] (Huh-7, Huh7, 120 hr) is 101 to 500 nM; in assay [3] (MDA-MB-453, 96 hr), < 100 nM.
For the compound `C=CC(=O)NC1CCCCC1Nc1ncc2c(n1)N(Cc1ccnc(N)c1)C(=O)N(c1c(Cl)c(OC)cc(OC)c1Cl)C2` (stereo not drawn) [I-133], the GI50 is 101 to 500 nM in assay [2] (Huh-7, Huh7, 120 hr) and < 100 nM in assay [3] (MDA-MB-453, 96 hr).
`C=CC(=O)Nc1ccccc1Nc1ncc2c(n1)N(C)C(=O)N(c1c(F)c(OC)cc(OC)c1F)C2` [I-131]: the GI50 was 101 to 500 nM in assay [2] (Huh-7, Huh7, 120 hr) and < 100 nM in assay [3] (MDA-MB-453, 96 hr).
For `C=CC(=O)Nc1ccccc1Nc1ncc2c(n1)N(CC1CC1)C(=O)N(c1cc(OC)cc(OC)c1)C2` [I-98], the GI50 was > 1000 nM in assay [2] (Huh-7, Huh7, 120 hr) and 101 to 500 nM in assay [3] (MDA-MB-453, 96 hr).
In the case of `C=CC(=O)N[C@H]1CCCC[C@H]1Nc1ncc2c(n1)N(C)C(=O)N(c1c(Cl)c(OC)c(OC)c(OC)c1Cl)C2` [I-221], the pIC50 in assay [1] (setting [4]) is < 6.00.
